According to patent US20190064149A1, “CANCER EXAMINATION METHOD AND EXAMINATION KIT” (THE UNIVERSITY OF TOKYO, priority 2013, published 2019):

Target: T1, MT1-MMP (Homo sapiens, UniProt P50281)
T1 construct: expressed in transfected cells; host or cells: HT1080 (human fibrosarcoma) stably expressing c-myc-EphA2, transiently transfected with pSG-MT1-MMP
Test: EphA2 processing by MT1-MMP in HT1080 cells forcibly expressing MT1-MMP and Myc-labeled EphA2, western blotting
Format: cell-based
Method: HT1080 cells expressing c-myc-EphA2 stably were prepared by a ViraPower™ lentiviral expression system using a plenti-c-myc-EphA2 vector in HT1080 and expression vectors (pSG-MT1-6-MMPs) of MT1-6-MMPs were transiently introduced into the resulting cells. EphA2 and MT1-MMP were detected by western blotting using an anti-Myc polyclonal antibody and an anti-MT1-MMP monoclonal antibody. Respective expression vectors of the MT-MMPs were introduced using FuGene6 (Rhoche). Expression of c-myc-EphA2 and wild type MT1-MMP was confirmed by solubilizing each of the cells (10 cm) by RIPA and then performing immunoprecipitation (IP) of EphA2 and stud thereof by an anti C-myc antibody. In order to inhibit the protease activity of MT1-MMP, BB94 or TIMP-2 was added as an MMP inhibitor to a culture solution.

## CNC(=O)[C@H](Cc1ccccc1)NC(=O)[C@H](CC(C)C)[C@H](CSc1cccs1)C(=O)NO [BB94]
HT1080 cells co-expressing Myc-EphA2 and wild type MT1-MMP
  EphA2 species purified by immunoprecipitation with Myc antibody: only a full length type EphA2
HT1080 cells forcibly expressing MT1-MMP, inhibitor added to culture solution
  production of 65 and 60 kDa EphA2 processed fragments: suppressed
